The assay concerns the target T1, human GPR84 receptor (Homo sapiens, UniProt Q9NQS5).
T1 construct: frozen aliquots prepared by acCELLerate; host or cells: CHO-K1
Description: cAMP HTRF assay for identification of cellular GPR84 antagonists. In kind it is cell-based. Particulars: CHO-K1 cells stably expressing human GPR84; Forskolin plus agonist 6-OAU; cAMP HTRF readout; average or median values. The source says:
cAMP HTRF® Assay for Identification of Cellular GPR84 Antagonists
By using a Homogenous Time-Resolved Fluorescence (HTRF®) based assay (#62AM5PEJ, Cisbio, Condolet, France) the inhibition of the Gi-coupled GPR84 receptor can be detected. CHO-K1 cells stably expressing human GPR84 receptor (purchased from DiscoveRx, now Eurofins) were used and treated with Forskolin (F6886, Sigma, Germany) to stimulate membrane adenylyl cyclases and thereby unspecific cAMP formation. Activation of the Gi-coupled GPR84 by a natural or small molecule agonist (e.g. 6-n-octyl aminouracile, inhouse) results in inhibition of cellular cAMP formation which can be released again by antagonists to this receptor. Detection and quantification of cellular cAMP levels in this HTRF assay is achieved by interaction between a fluorescent cAMP tracer (cAMP-d2) and an Eu-cryptate labelled anti-cAMP antibody. Following excitation at 337 nm this pairing allows for the generation of a fluorescence resonance energy transfer (FRET) between the partners and results in FRET induced emissions at 665 nm and 620 nm, the latter representing background signal by Eu-cryptate labelled anti-cAMP antibody. Maximal signal is obtained in the absence of any cellular cAMP (no competition for the binding of the tracer to the antibody). Given the combination of the Gi coupling properties of GPR84 and the competitive nature of the detection system agonist treatment should result in an increase in the HTRF signal due to lowered cAMP levels. Any signal decrease in the presence of Forskolin, agonist and compound is indicative of antagonist mediated abrogation of GPR84 signalling.
For the assay, frozen aliquots of CHO-K1 cells expressing hGPR84 (prepared by acCELLerate, Hamburg, Germany) were thawed and a cell suspension (1.67E+06 cells/mL) in assay media (Ham's F12 Nutrient Mix, Thermo Fisher Scientific, Waltham, USA; 5% fetal calf serum, Biomol, Hamburg, Germany) containing cAMP-d2 (dilution 1:20, supplied with the kit #62AM5PEJ, Cisbio, Condolet, France) was prepared. After recovery of cells for 20 minutes at 37° C., 3 μL/well cell suspension including cAMP-d2 were added to a pre-dispensed assay plate (Greiner Bio-One, Kremsmuenster, Austria) containing 50 nl/well test compound in 100% DMSO or 100% DMSO as control. This was followed by a 30 minutes incubation step at room temperature. […] The reaction was stopped by addition of 3 μL/well lysis buffer containing cAMP Eu-Cryptate antibody (dilution 1:20) (both supplied with the kit #62AM5PEJ, Cisbio, Condolet, France). To enable complete lysis, plates were incubated for 60 minutes at room temperature before measurement in an HTRF reader, e.g. a PHERAstar (BMG Labtech, Ortenberg, Germany).
From the fluorescence emissions at 665 nm (FRET) and at 620 nm (background signal of Eu-cryptate) the ratio (emission at 665 nm divided by emission at 620 nm×10000) was calculated and the data were normalized (reaction without test compound, only 100% DMSO=0% inhibition; all other assay components except agonist=100% inhibition). For dose response testing on the same microtiter plate, compounds were tested at 11 different concentrations in the range of 20 μM to 0.07 nM (20 μM, 5.7 μM, 1.6 μM, 0.47 μM, 0.13 μM, 38 nM, 11 nM, 3.1 nM, 0.89 nM, 0.25 and 0.07 nM; dilution series prepared before the assay at the level of the 100-fold conc. stock solutions by serial 1:3.5 dilutions in 100% DMSO) in duplicate values for each concentration. IC50 values were calculated by 4-parameter fitting using a commercial software package (Genedata Screener, Basel, Switzerland).
Examples were tested in selected biological assays one or more times. […]
Background: TR-FRET usually uses a lanthanide donor and a delayed reading to cut background.

T1 sequence (Q9NQS5 whole entry): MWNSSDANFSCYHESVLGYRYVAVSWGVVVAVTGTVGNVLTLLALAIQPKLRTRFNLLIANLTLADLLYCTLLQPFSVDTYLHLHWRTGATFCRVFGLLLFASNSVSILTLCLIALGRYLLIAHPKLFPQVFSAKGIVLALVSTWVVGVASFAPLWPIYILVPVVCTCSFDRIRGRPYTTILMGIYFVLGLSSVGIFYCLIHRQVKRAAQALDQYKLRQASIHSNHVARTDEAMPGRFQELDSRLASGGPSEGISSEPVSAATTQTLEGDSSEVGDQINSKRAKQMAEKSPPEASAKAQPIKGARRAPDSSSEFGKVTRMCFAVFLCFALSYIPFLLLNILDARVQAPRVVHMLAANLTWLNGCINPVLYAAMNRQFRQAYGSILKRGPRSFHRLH

On to `CC1CCC(CNC(=O)c2oc3ccc4cn(C[C@H]5COCCO5)nc4c3c2C(F)(F)F)O1` (mixture of isomers) [Example 7, 2-{[(2S)-1,4-dioxan-2-yl]methyl}-N-{[(2RS,5RS)-5-methyltetrahydrofuran-2-yl]methyl}-8-(trifluoromethyl)-2H-furo[2,3-g]indazole-7-carboxamide], for which the IC50 was 13 nM.

Turning to `CC1(C)COC(CNC(=O)c2oc3ccc4cn(C[C@H]5COCCO5)nc4c3c2C(F)(F)F)C1` (mixture of isomers) [Example 5], the IC50 was 9 nM.

With `O=C(NCC1CC(F)(F)CO1)c1oc2ccc3cn(C[C@H]4COCCO4)nc3c2c1C(F)(F)F` (mixture of isomers) [Example 6], the 50% inhibitory concentration (IC50) stood at 11 nM.

Take `O=C(NC[C@@H]1COCCO1)c1oc2ccc3cn(C[C@H]4COCCO4)nc3c2c1C(F)(F)F` [Example 1, N-{[(2R)-1,4-dioxan-2-yl]methyl}-2-{[(2S)-1,4-dioxan-2-yl]methyl}-8-(trifluoromethyl)-2H-furo[2,3-g]indazole-7-carboxamide]: the 50% inhibitory concentration (IC50) came out at 16 nM.

For `O=C(NC[C@@H]1CCCO1)c1oc2ccc3cn(C[C@H]4COCCO4)nc3c2c1C(F)(F)F` [Example 2], the IC50 was determined as 7 nM.

With `Cc1ccc(Cn2cc3ccc4oc(C(=O)NC[C@@H]5COCCO5)c(C(F)(F)F)c4c3n2)cn1` [Example 3, N-{[(2R)-1,4-dioxan-2-yl]methyl}-2-[(6-methylpyridin-3-yl)methyl]-8-(trifluoromethyl)-2H-furo[2,3-g]indazole-7-carboxamide], the half-maximal inhibitory concentration (IC50) turned out to be 7 nM.

For `Cc1ccc(Cn2cc3ccc4oc(C(=O)NC[C@@H]5CCCO5)c(C(F)(F)F)c4c3n2)cn1` [Example 4], the half-maximal inhibitory concentration (IC50) worked out at 9 nM.

Turning to `O=C(NCCC1CC1)c1oc2ccc3cn(C[C@H]4COCCO4)nc3c2c1C(F)(F)F` [Example 8], the IC50 was found to be 1040 nM.

In the case of `CS(=O)(=O)CCNC(=O)c1oc2ccc3cn(C[C@H]4COCCO4)nc3c2c1C(F)(F)F` [Example 9], the IC50 was found to be 3490 nM.

Turning to `O=C(NCc1cocn1)c1oc2ccc3cn(C[C@H]4COCCO4)nc3c2c1C(F)(F)F` [Example 10], the IC50 was 100 nM.

`Cn1cnc(CNC(=O)c2oc3ccc4cn(C[C@H]5COCCO5)nc4c3c2C(F)(F)F)c1` [Example 11]: the half-inhibitory concentration (IC50) was determined as 75 nM.

With `O=C(NCc1nccs1)c1oc2ccc3cn(C[C@H]4COCCO4)nc3c2c1C(F)(F)F` [Example 12], the IC50 stood at 18 nM.

Take `O=C(NCc1cncs1)c1oc2ccc3cn(C[C@H]4COCCO4)nc3c2c1C(F)(F)F` [Example 13]: the half-maximal inhibitory concentration (IC50) worked out at 490 nM.

As for `O=C(NCc1ncccn1)c1oc2ccc3cn(C[C@H]4COCCO4)nc3c2c1C(F)(F)F` [Example 14], the IC50 came out at 48 nM.

As for `O=C(NCc1cnccn1)c1oc2ccc3cn(C[C@H]4COCCO4)nc3c2c1C(F)(F)F` [Example 15], the IC50 was found to be 49 nM.

`O=C(NCc1ccncn1)c1oc2ccc3cn(C[C@H]4COCCO4)nc3c2c1C(F)(F)F` [Example 16]: the IC50 turned out to be 120 nM.

As for `O=C(NCc1cccnn1)c1oc2ccc3cn(C[C@H]4COCCO4)nc3c2c1C(F)(F)F` [Example 17], the IC50 came to 460 nM.

Turning to `Cc1ccc(CNC(=O)c2oc3ccc4cn(C[C@H]5COCCO5)nc4c3c2C(F)(F)F)nc1` [Example 18, 2-{[(2S)-1,4-dioxan-2-yl]methyl}-N-[(5-methylpyridin-2-yl)methyl]-8-(trifluoromethyl)-2H-furo[2,3-g]indazole-7-carboxamide], the concentration for half-maximal inhibition (IC50) was found to be 7 nM.

With `Cc1ccnc(CNC(=O)c2oc3ccc4cn(C[C@H]5COCCO5)nc4c3c2C(F)(F)F)c1` [Example 19, 2-{[(2S)-1,4-dioxan-2-yl]methyl}-N-[(4-methylpyridin-2-yl)methyl]-8-(trifluoromethyl)-2H-furo[2,3-g]indazole-7-carboxamide], the IC50 is 53 nM.

As for `Cc1cnc(CNC(=O)c2oc3ccc4cn(C[C@H]5COCCO5)nc4c3c2C(F)(F)F)cn1` [Example 20, 2-{[(2S)-1,4-dioxan-2-yl]methyl}-N-[(5-methylpyrazin-2-yl)methyl]-8-(trifluoromethyl)-2H-furo[2,3-g]indazole-7-carboxamide], the IC50 was 18 nM.

Turning to `Cc1ccc(CNC(=O)c2oc3ccc4cn(C[C@H]5COCCO5)nc4c3c2C(F)(F)F)nn1` [Example 21], the IC50 stood at 350 nM.

With `N#Cc1ccc(CNC(=O)c2oc3ccc4cn(C[C@H]5COCCO5)nc4c3c2C(F)(F)F)nc1` [Example 22], the IC50 is 13 nM.

With `N#Cc1ccnc(CNC(=O)c2oc3ccc4cn(C[C@H]5COCCO5)nc4c3c2C(F)(F)F)c1` [Example 23], the half-maximal inhibitory concentration (IC50) stood at 250 nM.

Take `COc1cccc(CNC(=O)c2oc3ccc4cn(C[C@H]5COCCO5)nc4c3c2C(F)(F)F)n1` [Example 24]: the IC50 was 400 nM.

Turning to `O=C(NCCn1ccnc1)c1oc2ccc3cn(C[C@H]4COCCO4)nc3c2c1C(F)(F)F` [Example 25], the IC50 was 13000 nM.

`Cc1cn(CCNC(=O)c2oc3ccc4cn(C[C@H]5COCCO5)nc4c3c2C(F)(F)F)nn1` [Example 26]: the IC50 amounted to 14000 nM.

Turning to `O=C(NCCc1ccccn1)c1oc2ccc3cn(C[C@H]4COCCO4)nc3c2c1C(F)(F)F` [Example 27, 2-{[(2S)-1,4-dioxan-2-yl]methyl}-N-[2-(pyridin-2-yl)ethyl]-8-(trifluoromethyl)-2H-furo[2,3-g]indazole-7-carboxamide], the IC50 was 630 nM.

For the compound `O=C(NCCc1cccnc1)c1oc2ccc3cn(C[C@H]4COCCO4)nc3c2c1C(F)(F)F` [Example 28, 2-{[(2S)-1,4-dioxan-2-yl]methyl}-N-[2-(pyridin-3-yl)ethyl]-8-(trifluoromethyl)-2H-furo[2,3-g]indazole-7-carboxamide], the IC50 was found to be 3580 nM.

On to `Cc1cc2oc(C(=O)NC[C@@H]3CCCO3)c(C(F)(F)F)c2c2nn(Cc3ccccn3)cc12` [Example 29], for which the IC50 came out at 16 nM.

Consider `Cc1cc2oc(C(=O)NC[C@@H]3COCCO3)c(C(F)(F)F)c2c2nn(Cc3ccccn3)cc12` [Example 30], for which the IC50 was 26 nM.

For `Cc1cc2oc(C(=O)NC[C@@H]3CCCO3)c(C(F)(F)F)c2c2nn(Cc3ccncc3)cc12` [Example 31], the half-inhibitory concentration (IC50) is 13 nM.

For `Cc1cc2oc(C(=O)NCc3ncco3)c(C(F)(F)F)c2c2nn(Cc3ccccn3)cc12` [Example 33], the IC50 is 100 nM.

Regarding `Cc1cc2oc(C(=O)NCc3ccn(C)n3)c(C(F)(F)F)c2c2nn(Cc3ccccn3)cc12` [Example 34], the IC50 was 150 nM.

Consider `Cc1ccc(Cn2cc3c(C)cc4oc(C(=O)NC[C@@H]5CCCO5)c(C(F)(F)F)c4c3n2)nc1` [Example 35], for which the half-inhibitory concentration (IC50) was 4 nM.

Take `Cc1ccc(Cn2cc3c(C)cc4oc(C(=O)NC[C@@H]5COCCO5)c(C(F)(F)F)c4c3n2)nc1` [Example 36, N-{[(2R)-1,4-dioxan-2-yl]methyl}-4-methyl-2-[(5-methylpyridin-2-yl)methyl]-8-(trifluoromethyl)-2H-furo[2,3-g]indazole-7-carboxamide]: the IC50 was found to be 5 nM.

As to `Cc1ccc(Cn2cc3c(C)cc4oc(C(=O)NCc5ncco5)c(C(F)(F)F)c4c3n2)nc1` [Example 37, 4-methyl-2-[(5-methylpyridin-2-yl)methyl]-N-[(1,3-oxazol-2-yl)methyl]-8-(trifluoromethyl)-2H-furo[2,3-g]indazole-7-carboxamide], the IC50 is 18 nM.

Regarding `Cc1cc2oc(C(=O)NC[C@@H]3CCCO3)c(C(F)(F)F)c2c2nn(C[C@H]3COCCO3)cc12` [Example 38], the half-maximal inhibitory concentration (IC50) is 21 nM.

What is called IC50 is the midpoint of a concentration-inhibition curve.

These data come from patent publication US20240417407A1, “FUROINDAZOLE DERIVATIVES AS GPR84 ANTAGONISTS” (Bayer Aktiengesellschaft, priority 2021, published 2024).
